Data set [1] concerns iHeps. In words: RNA-Seq of iHeps from mono-culture and HIVIL. The format is cell-based, human. An excerpt: Subsequent analyses compared gene fold-changes of treated samples against their respective vehicle controls: "m" and "c" indicate mono- and co-culture, and "–" and "+" represent the absence or presence of LPS. […] However, this is only applicable for co-cultures where downstream effects can be traced back to cytokine changes, and not in monocultures where significant upstream cytokine changes are not observed.
RNA extraction was done using TRIzol and analyzed on a Tapestation 4200 to determine RNA Integrity Number (RIN). Only samples with RIN > 8 were sequenced. Illumina Stranded mRNA multiplexing was done with unique 96 dual indices, and all samples sequenced on the same lane of NovaSeq 6000 S4 flowcell. Data normalization was performed using DESeq2 v1.32.0 ([Love et al., 2014]) on the R programming language v4.1.0 ([R Core Team, 2021]; [R Team, 2021]). Gene enrichment analysis was done with fgsea v1.18 ([Korotkevich et al., 2021]) with gene sets downloaded from MSigDB and KEGG pathway visualization done via pathview v1.32 ([Kanehisa et al., 2021]; [Luo and Brouwer, 2013]). Other plots were produced using ggplot2 v3.3.5 and scatterplot3d v0.3-41 ([Ligges and Maechler, 2003]). The RNA-Seq dataset has been deposited in NCBI under accession number GSE189320.
RNA seq and analysis: After 48 hr of drug treatment, iHeps cultured in mono-culture and HIVIL were both subjected to TrypLE^TM dissociation, and subsequently sorted with magnetic separation with the CD163 Microbead kit (Miltenyi Biotec, Bergisch Gladbach, Germany) to obtain only iHeps. Flow-through was collected, pelleted down and snap-frozen in liquid nitrogen, before storage at -80°C. Lysates were sent to the Genome Research Informatics and Data Science platform (Agency for Science, Technology and Research, Singapore). RNA extraction was done using TRIzol and analyzed on a Tapestation 4200 to determine RNA Integrity Number (RIN). All sequenced samples included for further analysis had RIN > 8. Illumina Stranded mRNA multiplexing was done with unique 96 dual indices, and all samples sequenced on the same lane of NovaSeq 6000 S4 flowcell. Sequenced reads were trimmed for adaptor sequence using Trim Galore v0.6.4, then aligned to human genome build GRCh38 using STAR_2.6.1d. Aligned reads are summarized into count matrices using featureCounts v1.6.4 with the gene annotation file from GENCODE v37.
Data normalization was performed using DESeq2 v1.32.0 (Love et al. 2014) on the R programming language v4.1.0 (Core Team 2021; Team 2021). Gene enrichment analysis was done with fgsea v1.18 (Korotkevich et al. 2021) with gene sets downloaded from MSigDB and KEGG pathway visualization done via pathview v1.32 (Kanehisa et al. 2021; Luo and Brouwer 2013). Other plots were produced using ggplot2 v3.3.5 and scatterplot3d v0.3-41 (Ligges and Maechler 2003). The RNA-Seq dataset has been deposited in NCBI under accession number GSE189320.

The test system of data set [2] is IL-10. In words: IL-10 ELISA in HIVIL (iKCs co-cultured with iHeps, LPS, 48 hr). The format is cell-based, human. The settings on record: result in words. An excerpt: Human iPSC cell line iPS (IMR90)-4 was purchased from WiCell Research Institute (Madison, WI), and maintained with a feeder-free method according to the instruction from […] Technologies (Vancouver, BC, Canada). The protocol of differentiation towards iKCs and iHeps as described previously with slight modification ([Tasnim et al., 2019]; [Cai et al., 2012]), respectively. […] More details are provided in Supplementary Methods. After differentiation, iKCs was harvested using 0.05 % trypsin-EDTA (Gibco, Waltham, Massachusetts, USA), while iHeps were dissociated with TrypLE^TM (Gibco). iHep suspension was further filtered through a 40 µm cell strainer to remove extracellular matrix clumps. Cell suspension was centrifuged at 1000 rpm for 5 min. For co-culture set up, tissue culture plates were coated with Rat tail collagen I (Gibco) diluted 100-fold in 0.02 N acetic acid, and incubated at 37 °C for 1 h and washed 3 times with PBS. […]
Enzyme-linked immunosorbent assay (ELISA) for measurement of cytokines: Interleukin-6 (IL-6), interleukin-10 (IL-10) and tumor necrosis factor alpha (TNFα) levels in the media were measured using the corresponding human-based ELISA kits (Abcam, Cambridge, United Kingdom) according to manufacturer’s instructions. […]

The conditions of data set [3]: Cammett et al. 2009, Mendes et al. 2014, cited from earlier work.
For data set [4], the system named is IL-6. In words: IL-6 ELISA in iPSC(F4)-derived HIVIL. The format is cell-based, human. The procedure: Enzyme-linked immunosorbent assay (ELISA) for measurement of cytokines: Interleukin-6 (IL-6), interleukin-10 (IL-10) and tumor necrosis factor alpha (TNFα) levels in the media were measured using the corresponding human-based ELISA kits (Abcam, Cambridge, United Kingdom) according to manufacturer’s instructions. The cytokine production from dosed cells was normalized with the viability value from the same well. The normalized cytokine level upon drug treatments was further presented as percentage of DMSO+LPS. Normalization to viability per well ensures that any changes in cytokines are not due to changes in cell numbers upon drug treatment and normalization to DMSO+LPS allows better comparison between different batches of experiments. This normalization approach has been used in previous studies (Rose et al. 2016).

Structures are written as SMILES. “And” between values parts separate entries of the source, which are not always exact repeats. Equal entries are not always repeated. Where two headings read alike, the source gives them in different places.

`N[C@@H]1[C@H]2CN(c3nc4c(cc3F)c(=O)c(C(=O)O)cn4-c3ccc(F)cc3F)C[C@@H]12` [TVX, Trovafloxacin]: the “pro-inflammatory cytokine and chemokine mRNA expression” value in data set [1] (LPS-treated co-cultures) is on record as “significantly increased”. In data set [1] (cTVX+, 25 µM), the FADD upregulation is reported as 1.7 fold, the TNFα transcription increase is recorded as 2.3 fold, the cIAP-2 upregulation is reported as 3 fold and the “caspase 3 upregulation” value stood at 1.8 fold. Further, the IL-8 transcription increase in data set [1] (co-culture, cTVX+ vs. cVeh+, 25 µM) worked out at 3.2 fold. This compound showed a TNFα transcription in data set [1] (mTVX+ compared to mVeh+, 25 µM) of 0.9 fold. Further, the cIAP-2 upregulation in data set [1] (mTVX+, 25 µM) worked out at 1.5 fold. The IL-8 transcription increase in data set [1] (mono-culture, mTVX+ vs. mVeh+, 25 µM) is recorded as 1.3 fold. Also, the “IL-6 transcription in iHeps” value in data set [1] (regardless of culture conditions, result in words) is on record as “slightly decreased”. Further, the IL-10 response entry in data set [2] is recorded as “dose-dependent IL-10 decrease”. Also, in data set [3] (ref in each cell: Ademisoye et al. 2018, Xu et al. 2008, Agabeyoglu and Incecayir 2009, Rojanasthien et al. 2007, Reunanen et al. 1992, Li et al. 2002, Hong-mei et al. 2013, Bareggi et al. 1987, Jiang et al. 2008), the Cmax is 5 µM. In addition, the Cmax in data set [3] (ref in each cell: Xu et al. 2008) is 5 µM. The “increase in IL-6” value in data set [4] (6.25 μM) is on record as 1.2 fold. The “inhibition of IL-6 production” value in data set [4] (higher concentrations) was 80% and 97%.
